Experimental data published in patent US10722501B2 (BAYER AKTIENGESELLSCHAFT, priority 2016, dated 2020).

The compounds below were run against T1, recombinant full-length human prolyl endopeptidase (PREP) (Homo sapiens, UniProt P48147) (assay: Biochemical human prolyl endopeptidase (PREP) assay with fluorescently labelled substrate). Details: substrate Z-Gly-Pro-AMC 50 μM, 32° C., 60 min; some as mean values from multiple independent determinations.
T1 construct: To recombinant full-length human prolyl endopeptidase (PREP, R&D-Systems, 4308-SE); purchased R&D-Systems 4308-SE
T1 sequence (P48147 1-710): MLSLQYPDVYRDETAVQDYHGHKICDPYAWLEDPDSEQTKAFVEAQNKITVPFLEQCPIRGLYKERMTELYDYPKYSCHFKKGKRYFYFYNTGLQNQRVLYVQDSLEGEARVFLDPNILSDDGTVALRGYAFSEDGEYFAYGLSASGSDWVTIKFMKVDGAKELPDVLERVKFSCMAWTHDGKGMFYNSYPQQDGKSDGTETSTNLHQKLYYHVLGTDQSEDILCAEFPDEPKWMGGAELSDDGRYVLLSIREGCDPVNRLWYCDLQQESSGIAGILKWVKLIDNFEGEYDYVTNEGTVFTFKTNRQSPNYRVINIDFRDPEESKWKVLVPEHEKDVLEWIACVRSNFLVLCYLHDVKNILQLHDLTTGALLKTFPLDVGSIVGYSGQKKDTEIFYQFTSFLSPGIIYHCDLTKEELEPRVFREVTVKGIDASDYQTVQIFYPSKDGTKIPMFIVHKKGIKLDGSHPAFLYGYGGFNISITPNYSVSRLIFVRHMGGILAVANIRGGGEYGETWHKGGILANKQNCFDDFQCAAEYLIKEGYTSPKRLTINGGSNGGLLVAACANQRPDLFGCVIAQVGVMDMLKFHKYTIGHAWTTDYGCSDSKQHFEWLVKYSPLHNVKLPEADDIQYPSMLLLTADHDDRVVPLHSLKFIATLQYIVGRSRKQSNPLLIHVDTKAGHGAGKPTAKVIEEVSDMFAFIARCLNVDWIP
Method in brief: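 0.4 nM (final, example) recombinant PREP in pH 7.5 Tris buffer with EDTA, GSH, BSA and Brij-35; compounds at 1 nM to 30 μM. Reaction started with 50 μM Z-Gly-Pro-AMC and followed by fluorescence (ex 360/em 465 nm) at 32° C for 60 min. IC50 interpolated from percent activity based on initial slopes.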

Row | IC50 [nM] | Compound
1 | 1.75 | O=C([C@@H]1CCCc2nn(CCc3ncc(C(F)(F)F)cc3Cl)c(=O)n21)N1CC[C@H](F)C1 [Example 342, (5S)-2-{2-[3-Chloro-5-(trifluoromethyl)pyridin-2-yl]ethyl}-5-{[(3S)-3-fluoropyrrolidin-1-yl]carbonyl}-5,6,7,8-tetrahydro[1,2,4]triazolo[4,3-a]pyridin-3(2H)-one]
2 | 6.4 | O=C([C@@H]1CCCc2nn(CCc3ccc(F)cc3)c(=O)n21)N1CC(F)(F)C1 [Example 345, (5S)-5-[(3,3-Difluoroazetidin-1-yl)carbonyl]-2-[2-(4-fluorophenyl)ethyl]-5,6,7,8-tetrahydro[1,2,4]triazolo[4,3-a]pyridin-3(2H)-one]
3 | 4.2 | COc1ccc(CCn2nc3n(c2=O)[C@H](C(=O)N2CCC(F)(F)C2)CCC3)cc1 [Example 346, (5S)-5-[(3,3-Difluoropyrrolidin-1-yl)carbonyl]-2-[2-(4-methoxyphenyl)ethyl]-5,6,7,8-tetrahydro[1,2,4]triazolo[4,3-a]pyridin-3(2H)-one]
4 | 3.8 | O=C([C@@H]1CCCc2nn(CC3(c4cccc(Cl)n4)CC3)c(=O)n21)N1CC(F)C1 [Example 348, (5S)-2-{[1-(6-Chloropyridin-2-yl)cyclopropyl]methyl}-5-[(3-fluoroazetidin-1-yl)carbonyl]-5,6,7,8-tetrahydro[1,2,4]triazolo[4,3-a]pyridin-3(2H)-one]
5 | 1.45 | O=C([C@@H]1CCCc2nn(CC3(c4cccc(Cl)n4)CC3)c(=O)n21)N1CCC(F)(F)C1 [Example 349, (5S)-2-{[1-(6-Chloropyridin-2-yl)cyclopropyl]methyl}-5-[(3,3-difluoropyrrolidin-1-yl)carbonyl]-5,6,7,8-tetrahydro[1,2,4]triazolo[4,3-a]pyridin-3(2H)-one]
6 | 1.6 | O=C([C@@H]1CCCc2nn(CC3(c4ccc(F)cc4)CC3)c(=O)n21)N1CC(F)C1 [Example 351, (5S)-5-[(3-Fluoroazetidin-1-yl)carbonyl]-2-{[1-(4-fluorophenyl)cyclopropyl]methyl}-5,6,7,8-tetrahydro[1,2,4]triazolo[4,3-a]pyridin-3(2H)-one]
7 | 2.3 | O=C([C@@H]1CCCc2nn(CC3(c4ccc(F)cc4)CC3)c(=O)n21)N1CCC(F)(F)C1 [Example 353, (5S)-5-[(3,3-Difluoropyrrolidin-1-yl)carbonyl]-2-{[1-(4-fluorophenyl)cyclopropyl]methyl}-5,6,7,8-tetrahydro[1,2,4]triazolo[4,3-a]pyridin-3(2H)-one]
8 | 1.3 | Cc1ccc(C2(Cn3nc4n(c3=O)[C@H](C(=O)N3CC(F)C3)CCC4)CC2)cc1 [Example 355, (5S)-5-[(3-Fluoroazetidin-1-yl)carbonyl]-2-{[1-(4-methylphenyl)cyclopropyl]methyl}-5,6,7,8-tetrahydro[1,2,4]triazolo[4,3-a]pyridin-3(2H)-one]
9 | 0.3 | O=C([C@@H]1CCCc2nn(CC3(c4ccc(C(F)(F)F)cc4)CC3)c(=O)n21)N1CC[C@H](F)C1 [Example 356, (5S)-5-{[(3S)-3-Fluoropyrrolidin-1-yl]carbonyl}-2-({1-[4-(trifluoromethyl)phenyl]cyclopropyl}methyl)-5,6,7,8-tetrahydro[1,2,4]triazolo[4,3-a]pyridin-3(2H)-one]
10 | 0.43 | COc1ccc(C2(Cn3nc4n(c3=O)[C@H](C(=O)N3CC(F)C3)CCC4)CC2)cc1 [Example 357, (5S)-5-[(3-Fluoroazetidin-1-yl)carbonyl]-2-{[1-(4-methoxyphenyl)cyclopropyl]methyl}-5,6,7,8-tetrahydro[1,2,4]triazolo[4,3-a]pyridin-3(2H)-one]
11 | 0.068 | O=C([C@@H]1CCCc2nn(CC3(c4ccc(F)cc4F)CC3)c(=O)n21)N1CC[C@H](F)C1 [Example 358]
12 | 1.1 | O=C([C@@H]1CCCc2nn(CC3(c4ccc(F)cc4F)CC3)c(=O)n21)N1CCC(F)(F)C1 [Example 359, (5S)-2-{[1-(2,4-Difluorophenyl)cyclopropyl]methyl}-5-[(3,3-difluoropyrrolidin-1-yl)carbonyl]-5,6,7,8-tetrahydro[1,2,4]triazolo[4,3-a]pyridin-3(2H)-one]

The remaining lines, values behind:

Row | Compound | IC50 [nM]
13 | O=C([C@@H]1CCC(F)(F)c2nn(Cc3ccc(C(F)(F)F)nc3)c(=O)n21)N1CC[C@H](F)C1 [Example 278, (5S)-8,8-Difluoro-5-{[(3S)-3-fluoropyrrolidin-1-yl]carbonyl}-2-{[6-(trifluoromethyl)pyridin-3-yl]methyl}-5,6,7,8-tetrahydro[1,2,4]triazolo[4,3-a]pyridin-3(2H)-one] | 3.3
14 | O=C([C@@H]1CCCc2nn(CCc3ncc(C(F)(F)F)cc3Cl)c(=O)n21)N1CCC(F)(F)C1 [Example 343, (5S)-2-{2-[3-Chloro-5-(trifluoromethyl)pyridin-2-yl]ethyl}-5-[(3,3-difluoropyrrolidin-1-yl)carbonyl]-5,6,7,8-tetrahydro[1,2,4]triazolo[4,3-a]pyridin-3(2H)-one] | 7.9
15 | O=C([C@@H]1CCCc2nn(CCc3ccc(F)cc3)c(=O)n21)N1C[C@@H](F)[C@@H](F)C1 [Example 344, (5S)-5-{[(3R,4S)-3,4-Difluoropyrrolidin-1-yl]carbonyl}-2-[2-(4-fluorophenyl)ethyl]-5,6,7,8-tetrahydro[1,2,4]triazolo[4,3-a]pyridin-3(2H)-one] | 0.53
16 | COc1ccc(CCn2nc3n(c2=O)[C@H](C(=O)N2CC(F)C2)CCC3)cc1 [Example 347, (5S)-5-[(3-Fluoroazetidin-1-yl)carbonyl]-2-[2-(4-methoxyphenyl)ethyl]-5,6,7,8-tetrahydro[1,2,4]triazolo[4,3-a]pyridin-3(2H)-one] | 4.8
17 | O=C([C@@H]1CCCc2nn(CC3(c4cccc(Cl)n4)CC3)c(=O)n21)N1CC[C@H](F)C1 [Example 350, (5S)-2-{[1-(6-Chloropyridin-2-yl)cyclopropyl]methyl}-5-{[(3S)-3-fluoropyrrolidin-1-yl]carbonyl}-5,6,7,8-tetrahydro[1,2,4]triazolo[4,3-a]pyridin-3(2H)-one] | 0.35
18 | O=C([C@@H]1CCCc2nn(CC3(c4ccc(F)cc4)CC3)c(=O)n21)N1CC[C@H](F)C1 [Example 352, (5S)-2-{[1-(4-Fluorophenyl)cyclopropyl]methyl}-5-{[(3S)-3-fluoropyrrolidin-1-yl]carbonyl}-5,6,7,8-tetrahydro[1,2,4]triazolo[4,3-a]pyridin-3(2H)-one] | 0.32
19 | Cc1ccc(C2(Cn3nc4n(c3=O)[C@H](C(=O)N3CC(O)C3)CCC4)CC2)cc1 [Example 354, (5S)-5-[(3-Hydroxyazetidin-1-yl)carbonyl]-2-{[1-(4-methylphenyl)cyclopropyl]methyl}-5,6,7,8-tetrahydro[1,2,4]triazolo[4,3-a]pyridin-3(2H)-one] | 19
20 | CCn1nc(C(F)(F)F)cc1Cn1nc2n(c1=O)[C@H](C(=O)N1CC[C@H](F)C1)CCC2 [Example 360, (5S)-2-{[1-Ethyl-3-(trifluoromethyl)-1H-pyrazol-5-yl]methyl}-5-{[(3S)-3-fluoropyrrolidin-1-yl]carbonyl}-5,6,7,8-tetrahydro[1,2,4]triazolo[4,3-a]pyridin-3(2H)-one] | 0.81
21 | CCn1nc(C(F)(F)F)cc1Cn1nc2n(c1=O)[C@H](C(=O)N1C[C@@H](F)[C@@H](F)C1)CCC2 [Example 361, (5S)-5-{[(3R,4S)-3,4-Difluoropyrrolidin-1-yl]carbonyl}-2-{[1-ethyl-3-(trifluoromethyl)-1H-pyrazol-5-yl]methyl}-5,6,7,8-tetrahydro[1,2,4]triazolo[4,3-a]pyridin-3(2H)-one] | 1.2
